Results published in patent US12336980B2, “Dosing regimen for a selective S1P1 receptor agonist” (Vanda Pharmaceuticals Inc., priority 2014, dated 2025).

Assay: Plasma concentrations of ponesimod by LC-MS/MS
Assay type: in vivo, human
Text: The enrolled subjects came to the study center for each treatment period on Day −2 and participated in a run-in (all study procedures performed without study drug administration) on Day −1. On Day 1, subjects were randomized to one of the two possible sequences of the two up-titration regimens A and B (ratio 1:1). On Day 1, all subjects received placebo; the first study drug administration (or its matching placebo) occurred on Day 2. Regimen A consisted of the novel up-titration regimen: ponesimod was administered once daily (o.d.) orally at a dose of 2 mg on Day 2 and Day 3, 3 mg on Day 4 and Day 5, 4 mg on Day 6 and Day 7, 5 mg on Day 8, 6 mg on Day 9, 7 mg on Day 10, 8 mg on Day 11, 9 mg on Day 12, 10 mg on Day 13 and Day 14, and 20 mg on Day 15. The reference regimen (regimen B) was based on previous studies (Olsson T. et al., Oral ponesimod in relapsing-remitting multiple sclerosis: a randomised phase II trial. J Neurol Neurosurg Psychiatry. 2014; 85 (11): 1198-1208; and Vaclavkova A. et al., Oral ponesimod in patients with chronic plaque psoriasis: a randomised, double-blind, placebo-controlled phase 2 trial. Lancet. 2014; 384 (9959): 2036-2045) and consisted of an o.d. oral administration of ponesimod at a dose of 10 mg for 7 days (i.e., from Day 2 to Day 8) and 20 mg on Day 9. From Day 10 to Day 15 subjects received o.d. the matching placebo. In the placebo group (1:1 sex ratio), subjects received placebo from Day 1 to Day 15. […]
Blood samples of about 3 mL were collected in ethylene di-amine tetra acetic acid tubes at pre-dose and 3 h after study drug administration from Day 1 to Day 15 in each treatment period. […] Plasma concentrations of ponesimod were determined using a validated liquid chromatography coupled to tandem mass spectrometry assay with a lower limit of quantification of 1 ng/mL (Brossard P. et al., Pharmacokinetics and pharmacodynamics of ponesimod, a selective S1 P1 receptor modulator, in the first-in-human study. British journal of clinical pharmacology. 2013; 76 (6): 888-896). […]

concentration at 3 h (human, plasma, oral, 20 mg, regimen A, Day 15, read-out: plasma concentration 3 h after 20 mg of ponesimod): 144 ± 36.9 ng/mL | plasma concentration 3 h after 20 mg of ponesimod (regimen B, Day 9): 144.0 ± 41.9 ng/mL | 10 mg steady-state conditions attained (regimen B, visual inspection): Day 6
Compound: CCC/N=C1\S/C(=C\c2ccc(OC[C@H](O)CO)c(Cl)c2)C(=O)N1c1ccccc1C [ponesimod, (R)-5-[3-chloro-4-(2,3-dihydroxy-propoxy)-benz[Z]ylidene]-2-([Z]-propylimino)-3-o-tolyl-thiazolidin-4-one]
